The source of these data is paper PMC6208908, “Field template-based design and biological evaluation of new sphingosine kinase 1 inhibitors” (Breast Cancer Research and Treatment, 2018).

Data set [1] addresses T1, endogenous SK1 in MDA-MB-231 cells (Homo sapiens, UniProt Q9NYA1).
T1 construct: We treated MDA-MB-231 cells with 1 µM of compounds SK-A – SK-F and SKI-II as the positive control for 6 h; endogenous in cells; host or cells: MDA-MB-231
The data set can be described thus: SK1 activity in lysates of treated MDA-MB-231 cells. The data set is classed as cell-based. Conditions: 6 h. On the procedure:
After incubation, cells were washed with ice-cold phosphate-buffered saline (PBS) and harvested.
SK assay was performed using radiolabeling as previously described, in conditions favouring SK1 or SK2 activity as required.
Fig. 2 Inhibition of sphingosine kinase 1 in cell-free extract and in vitro. a 1 µM of compounds SK-A to SK-F and SKI-II (commercial inhibitor of SK used as a positive control) were incubated in the presence of recombinant SK1 extract (in excess), 1 µM of ATP, and 1 µM exogenous sphingosine for 1 h. b MDA-MB-231 cells were incubated with 1 µM of compounds SK-A to SK-F and SKI-II for 6 h. SK1 activity was measured as described in materials and methods. Columns, means of three independent experiments normalised to vehicle; bars, SEM. (ns, non-significant; *p < 0.05; **p < 0.01)
Reportedly, among human tumour cell lines, the breast cancer cell line MDA-MB-231 expresses high levels of SK activity. We treated MDA-MB-231 cells with 1 µM of compounds SK-A – SK-F and SKI-II as the positive control for 6 h and analysed SK1 activity in the cell lysates using SK1 activity assay.

For the next data set, the target named is T2, tumour SK1 (Mus musculus, UniProt Q8CI15).
T2 construct: primary tumours were then processed for analysis of SK1 activity as described above; from tissue; host or cells: 4T1 breast tumour allografts from BALB/c nude mice
T2 sequence (Q8CI15 whole entry): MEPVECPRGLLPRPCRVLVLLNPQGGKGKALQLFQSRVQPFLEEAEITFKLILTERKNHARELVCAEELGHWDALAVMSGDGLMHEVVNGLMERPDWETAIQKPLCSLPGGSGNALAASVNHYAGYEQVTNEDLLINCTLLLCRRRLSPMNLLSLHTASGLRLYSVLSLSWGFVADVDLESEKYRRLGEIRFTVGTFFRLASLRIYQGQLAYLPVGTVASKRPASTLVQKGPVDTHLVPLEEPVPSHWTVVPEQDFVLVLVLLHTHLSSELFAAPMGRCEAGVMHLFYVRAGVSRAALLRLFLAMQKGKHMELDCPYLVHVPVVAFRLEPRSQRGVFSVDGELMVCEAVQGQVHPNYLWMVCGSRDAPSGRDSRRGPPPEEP
The data set can be described thus: SK1 activity in 4T1 allograft tumours. The data set is classed as in vivo, BALB/c nude mice. Conditions: 5 mg/kg each drug i.p. twice a week for 2 weeks. On the procedure:
(§1) Breast cancer allografts were established in 6–8-week-old BALB/c nude mice by injection of 10^6 4T1 cells into their mammary pad. Two weeks after implantation, mice were randomised into treatment groups (n = 6/group) and treated twice a week for 2 weeks with intraperitoneal injections of dimethyl sulfoxide (DMSO), 5 mg/kg DTX, 5 mg/kg SK-F, 5 mg/kg DTX + 5 mg/kg SK-F. One day after the last treatment, all mice were euthanized and blood was collected. Tumour long and short radii were measured using calipers and tumour volume (v) was calculated using the formula v = 4/3 πab^2 (a – long radius, b – short radius). Mice and individual organs were weighed and primary tumours were then processed for analysis of SK1 activity as described above. Full blood count and liver function test analysis was done in the Hammersmith hospital biochemical lab.
Fig. 5 Effect of compound SK-F on breast tumour growth and SK1 activity. […] Two weeks after implantation, mice were randomised into treatment groups (n = 6/group) and treated twice a week for 2 weeks with intraperitoneal injections of: DMSO, 5 mg/kg DTX, 5 mg/kg SK-F, 5 mg/kg DTX + 5 mg/kg SK-F. a Tumour volume in the different treatment groups of 4T1 breast cancer implanted in mouse mammary fat pad. b SK1 activity in tumours was measured using radiolabelling. […]

Data set [2] in a line: Whole-body toxicity: body and organ weights, full blood count. The data set is classed as in vivo, BALB/c nude mice. As to conditions: 5 mg/kg each drug i.p. twice a week for 2 weeks, 4T1 tumour-bearing mice. On the procedure: as §1
Tumour-bearing mice were divided into four groups (n = 6) and injected with: DMSO, 5 mg/kg DTX, 5 mg/kg SK-F, 5 mg/kg DTX + 5 mg/kg SK-F. Two weeks after the tumour cells inoculation, we began intraperitoneal injections of drug preparations and continued these twice a week for two weeks. Based on our previous studies, we have chosen relatively smaller doses of SK-F and DTX in order to investigate their combined effect and potential chemosensitisation of breast tumours to taxane therapies. In the control group, tumours grew progressively and rapidly (Fig. 5a). […] Five mg/kg DTX has induced a significant reduction in tumour volume to 281 mm^3. The biggest reduction in tumour volume to 159 mm^3 was observed when DTX was combined with SK-F (Fig. 5a). […] We have further investigated the effects of the used treatments on mouse whole-body toxicity. DTX has reduced body and liver weight, while SK-F had no significant effect (Table 1). DTX has induced significant anaemia and leukopenia, while the effects of SK-F were very moderate. In all cases, the effects of combined therapy were similar to DTX alone (Table 1). Liver function test was performed as a surrogate marker for chemotherapy-induced liver damage (Fig. 6). […] The combination therapy had similar toxicity profile to DTX alone, while exerting higher antitumour efficacy (Fig. 5a).

The target of another data set is T3, SK1 in 4T1 cells (Mus musculus, UniProt Q8CI15).
T3 construct: endogenous in cells; host or cells: 4T1
T3 sequence (Q8CI15 whole entry): as above
Kind of data set: SK1 activity in 4T1 cells in vitro (Figure S10). The data set is classed as cell-based, murine.

Marks after values point to notes of the source that are not given here.

T1 sequence (Q9NYA1 whole entry): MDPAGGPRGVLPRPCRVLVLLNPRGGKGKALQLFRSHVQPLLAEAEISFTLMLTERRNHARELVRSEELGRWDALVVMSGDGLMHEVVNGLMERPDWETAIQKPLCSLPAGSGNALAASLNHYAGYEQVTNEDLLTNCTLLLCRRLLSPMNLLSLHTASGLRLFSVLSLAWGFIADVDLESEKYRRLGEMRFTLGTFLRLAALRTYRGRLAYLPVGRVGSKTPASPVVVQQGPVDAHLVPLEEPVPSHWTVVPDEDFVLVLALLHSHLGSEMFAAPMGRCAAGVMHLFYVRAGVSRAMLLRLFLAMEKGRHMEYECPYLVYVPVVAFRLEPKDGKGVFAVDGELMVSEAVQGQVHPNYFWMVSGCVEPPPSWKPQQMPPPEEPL

Take `CCCCCCCCc1ccc(NC(=O)c2ccccc2)cc1` [SK-F]: the “SK1 activity in cells versus vehicle” value in data set [1] (1 µM) is given as “significantly decreased”. In addition, the inhibition at 1 µM in data set [1] (read-out: inhibition of SK1 activity in vitro) was 48.2%. Also, the “tumour SK1 activity” value at tumour SK1 is listed as “significantly reduced”. In data set [2], the Hb is given as 90 ± 8^a % of control ± SEM, the WCC is on record as 78 ± 7 % of control ± SEM, the “Weight of Body” value is recorded as 91 ± 6^ns % of control ± SEM and the “Weight of Kidney” value is recorded as 118.2 ± 3.6 % of control ± SEM. In data set [2], the “Weight of Liver” value is recorded as 106.7 ± 5.5^a % of control ± SEM, the “Weight of Lungs” value is listed as 117.7 ± 5.6 % of control ± SEM and the “Weight of Spleen” value was 111.2 ± 13.4^a % of control ± SEM. Further, the “SK1 activity in 4T1 cells” value at SK1 in 4T1 cells is recorded as “significant inhibition”.

One may read the inhibition as the relative decrease from the control value, in per cent.
